According to US6046331A, “Imidazolones and their use in treating benign prostatic hyperplasia and other disorders” (Synaptic Pharmaceutical Corporation, priority 1998, dated 2000):

These compounds were tested against T1, human α1d receptor (Homo sapiens, UniProt P25100) (assay: Radioligand binding ([^3 H]prazosin) at cloned human α1d receptor). Details: LM(tk-) cell membranes, read-out: hα1d Ki.
T1 construct: The entire coding region of α1d (1719 bp); expressed in transfected cells; host or cells: LM(tk-) mouse fibroblast line L-α1A (old nomenclature), ATCC CRL 11138
T1 sequence (P25100 1-572): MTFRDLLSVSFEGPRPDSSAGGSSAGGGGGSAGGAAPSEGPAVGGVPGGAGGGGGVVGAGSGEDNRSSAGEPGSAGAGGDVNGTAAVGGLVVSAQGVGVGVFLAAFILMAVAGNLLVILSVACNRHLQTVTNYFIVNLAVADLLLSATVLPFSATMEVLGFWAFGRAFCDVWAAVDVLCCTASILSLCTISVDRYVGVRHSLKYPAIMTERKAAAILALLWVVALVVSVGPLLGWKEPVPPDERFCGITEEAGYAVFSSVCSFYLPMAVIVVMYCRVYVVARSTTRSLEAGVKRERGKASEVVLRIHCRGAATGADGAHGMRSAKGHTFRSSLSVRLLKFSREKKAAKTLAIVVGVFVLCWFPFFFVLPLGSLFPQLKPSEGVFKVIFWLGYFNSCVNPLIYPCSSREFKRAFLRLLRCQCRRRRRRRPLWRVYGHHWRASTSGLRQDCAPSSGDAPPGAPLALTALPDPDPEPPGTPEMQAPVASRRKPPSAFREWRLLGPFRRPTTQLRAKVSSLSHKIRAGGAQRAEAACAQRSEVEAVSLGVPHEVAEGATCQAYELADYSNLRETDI
Method: Binding affinities were measured for selected compounds of the invention at six cloned human α1 and α2 receptor subtypes, as well as at the L-type calcium channel. The protocols for these experiments are given below.
The activity of compounds at the different human receptors was determined in vitro using cultured cell lines that selectively express the receptor of interest. These cell lines were prepared by transfecting the cloned cDNA or cloned genomic DNA or constructs containing both genomic DNA and cDNA encoding the human α-adrenergic receptors as follows:
α1d Human Adrenergic Receptor: The entire coding region of α1d (1719 bp), including 150 base pairs of 5' untranslated sequence (5' UT) and 300 bp of 3' untranslated sequence (3' UT), was cloned into the BamHI and ClaI sites of the polylinker-modified eukaryotic expression vector pCEXV-3, called EXJ.HR. The construct involved the ligation of partial overlapping human lymphocyte genomic and hippocampal cDNA clones: 5' sequence were contained on a 1.2 kb SmaI-XhoI genomic fragment (the vector-derived BamHI site was used for subcloning instead of the internal insert-derived SmaI site) and 3' sequences were contained on an 1.3 kb XhoI-ClaI cDNA fragment (the ClaI site was from the vector polylinker). Stable cell lines were obtained by cotransfection with the plasmid α1A/EXJ (expression vector containing the α1a receptor gene (old nomenclature)) and the plasmid pGCcos3neo (plasmid containing the aminoglycoside transferase gene) into LM(tk-) cells using calcium phosphate technique. The cells were grown, in a controlled environment (37° C., 5% CO2), as monolayers in Dulbecco's modified Eagle's Medium (GIBCO, Grand Island, N.Y.) containing 25 mM glucose and supplemented with 10% bovine calf serum, 100 units/ml penicillin g, and 100 μg/ml streptomycin sulfate. Stable clones were then selected for resistance to the antibiotic G-418 (1 mg/ml), and membranes were harvested and assayed for their ability to bind [^3 H]prazosin as described below (see "Radioligand Binding assays").
The cell line expressing the human α1d receptor used herein was designated L-α1A (old nomenclature) and was deposited with the American Type Culture Collection, 12301 Parklawn Drive, Rockville, Md. 20852, U.S.A. under the provisions of the Budapest Treaty for the International Recognition of the Deposit of Microorganisms for the Purposes of Patent Procedure. The cell line expressing the human α1d receptor, was accorded ATCC Accession No. CRL 11138, and was deposited on Sep. 25, 1992.
Radioligand Binding Assays for α1 receptors:
Transfected cells from culture flasks were scraped into 5 ml of 5 mM Tris-HCl, 5 mM EDTA, pH 7.5, and lysed by sonication. The cell lysates were centrifuged at 1000 rpm for 5 min at 4° C., and the supernatant was centrifuged at 30,000× g for 20 min at 4° C. The pellet was suspended in 50 mM Tris-HCl, 1 mM MgCl2, and 0.1% ascorbic acid at pH 7.5. Binding of the α1 antagonist [^3 H]prazosin (0.5 nM, specific activity 76.2 Ci/mmol) to membrane preparations of LM(tk-) cells was done in a final volume of 0.25 ml and incubated at 37° C. for 20 min. Nonspecific binding was determined in the presence of […] phentolamine. The reaction was stopped by filtration through GF/B filters using a cell harvester. Inhibition experiments, routinely consisting of 7 concentrations of the tested compounds, were analyzed using a non-linear regression curve-fitting computer program to obtain Ki values.
The compounds described above were assayed using cloned human alpha adrenergic receptors. […] The binding affinities of several compounds are illustrated in the following table.
Binding affinities of selected compounds of the present invention at cloned human α1d, α1b and α1a receptors. (h=human)

| Structure (SMILES) | Ki |
| --- | --- |
| COC(=O)c1[nH]c(=O)n(CCCCCN2CCC(C(=O)OC)(c3ccccc3)CC2)c1Cc1ccc(F)c(F)c1 [Compound 37, 5-(3,4-Difluorobenzyl)-2,3-dihydro-4-methoxycarbonyl-1-(5-(4-methoxycarbonyl-4-phenylpiperidin-1-yl)pent-1-yl)-2(1H) -imidazolone] | 513 nM |
| COC(=O)c1ccccc1N1CCN(CCCCCn2c(-c3cc(F)c(F)c(F)c3)c(C(=O)OC)[nH]c2=O)CC1 [Compound 5, 5-(3,4,5-Trifluorophenyl)-2,3-dihydro-4-methoxycarbonyl-1-(5-(4-(2-methoxycarbonylphenyl)piperazin-1-yl)pent-1-yl)-2(1H)-imidazolone] | 15.7 nM |
| COC(=O)c1[nH]c(=O)n(CCCCCN2CCC(C(=O)OC)(c3ccccc3)CC2)c1-c1ccc(F)c(F)c1 [Compound 1, 1-(5-(4-Methoxycarbonyl-4-phenylpiperidin-1-yl)pent-1-yl)-4-methoxycarbonyl-5-(3,4-difluorophenyl)-2,3-dihydro-2(1H)-imidazolone] | 329 nM |
| COC(=O)c1[nH]c(=O)n(CCCCCN2CCC(C#N)(c3ccccc3)CC2)c1-c1ccc(F)c(F)c1 [Compound 2, 5-(3,4-Difluorophenyl)-2,3-dihydro-4-methoxycarbonyl-1-(5-(4-cyano-4-phenylpiperidin-1-yl)pent-1-yl)-2(1H)-imidazolone] | 367 nM |
| COC(=O)c1[nH]c(=O)n(CCCCCN2CCC(O)(c3ccccc3)CC2)c1-c1ccc(F)c(F)c1 [Compound 3, 5-(3,4-Difluorophenyl)-2,3-dihydro-4-methoxycarbonyl-1-(5-(4-hydroxy-4-phenylpiperidin-1-yl)pent-1-yl)-2(1H)-imidazolone] | 2660 nM |
| CCOC(=O)c1[nH]c(=O)n(CCCCCN2CCN(c3ccccc3C(N)=O)CC2)c1-c1ccc(F)c(F)c1 [Compound 6, 1-(5-(4-(2-Aminocarbonylphenyl)piperazin-1-yl)pent-1-yl)-4-ethoxycarbonyl-5-(3,4-difluorophenyl)-2,3-dihydro-2(1H)-imidazolone] | 141 nM |
| COC(=O)c1[nH]c(=O)n(CCCCCN2CCN(c3ccccc3C(N)=O)CC2)c1-c1cc(F)c(F)c(F)c1 [Compound 4, 1-(5-(4-(2-Aminocarbonylphenyl)piperazin-1-yl)pent-1-yl)-5-(3,4,5-trifluorophenyl)-2,3-dihydro-4-methoxycarbonyl-2(1H)-imidazolone] | 279 nM |
| COC(=O)c1[nH]c(=O)n(CCCCCN2CCN(c3ccccc3C(N)=O)CC2)c1-c1cc(F)c(F)cc1F [Compound 7, 1-(5-(4-(2-Aminocarbonylphenyl)piperazin-1-yl)pent-1-yl)-5-(2,4,5-trifluorophenyl)-2,3-dihydro-4-methoxylcarboxy-2(1H)-imidazolone] | 197 nM |
